Assays:
[1] = tested on: rat models of neuropathic pain; details: rat models of neuropathic pain (Field et al. 1999); cited from earlier work
[2] = tested on: rats after intraplantar incision; assay: Rodent paw incision, Hargreaves thermal withdrawal assay (FIG. 1); format: in vivo, Sprague Dawley rats; details: intravenous, 30 mg/kg, post-surgery baseline, tested 0.5-4 hours
Procedure: The rodent paw incision model involves inducing a surgical incision to the plantar surface of the back paw of a mouse or rat, suturing the incision closed, then testing the area proximal to the wound for changes in sensory perception, such as allodynia or hypersensitivity, at some point in time after the incision (typically 24 hours later)(Brennan T J et al. Pain. 1996 March, 64(3):493-501). Thermal (Hargreaves) and mechanical (von Frey) sensory testing is performed before and 24 hours after surgical incision of the plantar surface of the left back paw of laboratory rats, at a plantar area adjacent to the incision. […]
Plantar incision of the hind paw of the rat produces a profound local inflammatory response characterized by pain hypersensitivity (allodynia) 24 hours after surgery in rats, in similar manner to the post-operative pain observed in humans (Brennan, T. J. et al. Pain. 1996 March; 64(3):493-501). […] Three days prior to testing the compound, thermal (Hargreaves) and mechanical (von Frey) sensitivity were measured using standard techniques described below. […] The thermal sensitivities of the animals were measured before surgery and 24 hours after surgery using the Hargreaves Thermal Withdrawal Assay (FIG. 1) (Kim, S. H. and Chung, J. M. Pain 50 (1992): 355-63). […]

[3] = tested on: rats post spinal nerve ligation; assay: Spinal nerve ligation (SNL), von Frey mechanical withdrawal (FIG. 3); format: in vivo, Sprague Dawley rats; details: oral, 100 mg/kg, 14 days post-SNL, tested 1, 2 and 4 hours
Procedure: Ligation of the L5 and L6 spinal nerves in rats leads to a robust pain state, characterized by tactile allodynia and mechanical hyperalgesia that can be assayed using the von Frey or Hargreaves assays (Kim, S. H. and Chung, J. M. Pain 50 (1992): 355-63). Sprague Dawley rats were housed in the animal vivarium 2 weeks prior to testing and housed on a 12 h light/dark cycle with food and water ad libitum. Under general anesthesia, the L5 and L6 spinal nerves on one side of the rat spine were tightly ligated using sterile surgical suture (Spinal Nerve Ligation, SNL). The incision site of each animal was then closed using standard surgical technique. Spared Nerve Injury: Animals were anesthetized by 2% isoflurane with 98% oxygen inhalation. […] The mechanical allodynia were measured at 60 minutes after administration every day (von Frey Cilia Apparatus, manufactured by Institute of Biology Bioengineering, Chinese Academy of Medical Science).
Baseline mechanical (von Frey) withdrawal responses were tested immediately before SNL surgery and 14 days after. […] Immediately after the 14-day post-surgical baseline responses were measured, Compound A (100 mg/kg), Gabapentin (100 mg/kg), or vehicle (control) were administered orally and voluntary withdrawal from von Frey mechanical stimuli were tested 1 hour, 2 hours and 4 hours later (FIG. 3). […]

SMILES | blocking of static and dynamic allodynia [1] | other results
CN1CC[C@]23c4c5ccc(O)c4O[C@H]2[C@@H](O)C=C[C@H]3[C@H]1C5 [morphine] | blocking only static allodynia, and not dynamic allodynia | 
CC(C)C[C@H](CN)CC(=O)O [pregablin] | blocking both types of allodynia | 
CC(C)Cc1ccc(C(C)C(=O)O)cc1 (stereo not shown) [ibuprofen] |  | reversal of reductions in thermal withdrawal thresholds after intraplantar incision [2]: not reversed
NCC1(CC(=O)O)CCCCC1 [gabapentin] |  | reversal of reduced mechanical withdrawal thresholds post spinal nerve ligation [3]: reversed

— patent US11464772B2, “Methods of treating acute or chronic pain” (priority 2017, dated 2022)
